“Also recorded” adds a separate entry of the source.
What was measured:
[1] = test system: verruca planae caused by HPV; experiment: Clinical treatment of verruca planae patients with methyltestosterone tablets; type: in vivo, human; conditions: for outcome at follow-up visit: 8 weeks later
[2] = test system: condyloma acuminatum caused by HPV; experiment: Clinical treatment of condyloma acuminatum patients with methyltestosterone tablets after operation, laser or freezing; type: in vivo, human; conditions: for relapse of lesions: in 6 months
Description: The study protocol using methyltestosterone as a treatment for verruca planae and condyloma acuminatum caused by HPV includes:
Some of the patients were the relapsed ones after the treatment by transferor, interferon, and interleukins.
Methyltestosterone is a tablet, manufactured by Southwest Pharmaceutical Company and the Second Pharmaceutical Company of Chengdu, China. The dosage was 5 mg/tablet.
Methyltestosterone was administered orally, 1 tablet/time, three times/day, and 5 days consecutively, followed by 1 tablet/time, two times/day, for additional 5-10 days consecutively.
One of the following would be considered as cure: A) there were no new vegetations at or around the lesion for at least six months after administration of methyltestosterone for 10-15 days following treatment with physical, chemical, and operational therapies. B) the vegetations reappeared in two months after operations and were positive for the acetowhitening test, but regressed for at least 6 months after administration of methyltestosterone for 10-15 days.

[3] = of 96 cases with facial verruca planae
[4] = out of 7 cases with hand and neck verruca planae

## CC12CCC(=O)C=C1CCC1C2CCC2(C)C1CCC2(C)O (stereo not drawn) [methyltestosterone]
[1]; Case 1: facial verruca planae 2 years, 1 tablet twice daily for 3 days
  time to cure: 2 weeks
[1]; Case 2: facial verruca planae 1 year, 1 tablet twice daily for 3 days
  time until all lesions regressed: 4 weeks
[1]; Case 3: facial verruca planae 4 years, 1 tablet twice daily for 3 days
  time until all lesions regressed: 4 weeks
[1]; Case 4: facial verruca planae 13 years, 1 tablet twice daily for 5 days, in 6 weeks
  lesions regressed: 90%
[1]; Case 5: hand and neck verruca planae 10 years, 1 tablet twice daily for 10 days
  time until lesions on the face regressed: 2 months
[1]; Case 6: facial verruca planae 3 months, 1 tablet once daily for 5 days plus Vitamin B2, Vitamin B6 and brimstone lotion
  time to cure: 4 weeks
[1]; Case 7: facial verruca planae, 1 tablet twice daily for 5 days
  outcome at follow-up visit: cured
[1]; Case 8: facial verruca planae one year, 1 tablet once daily for 5 days
  outcome at follow-up visit: cured
[1]; Case 9: facial verruca planae relapsed after laser, 1 tablet three times daily for 5 days
  outcome of lesions: regressed mostly
[1]; Case 10: flat papules on forehead and blepharons, 1 tablet three times daily for 4 days
  time until papules regressed completely: 3 weeks
[1]; facial verruca planae, 96 cases
  non-responsive rate: 2%
[1]; facial verruca planae, 96 cases, 5 mg tablet hypoglossally, two or three times/day, 3-5 days, cure = all facial exanthems regressed
  cure rate: 88.5%
[1]; facial verruca planae, 96 cases, effective = 70% of exanthems disappeared
  effective rate: 9.4%
[1]; hand and neck verruca planae, 7 cases
  effective rate: 86%
[1]; [3]
  cases cured: 85 cases
  cases effective: 9 cases
  cases non-responsive to the medication: 2 cases
[1]; [4]
  cases cured: 1 cases
  cases regressed after 5 weeks following the treatment: 3 cases
  cases remaining non-responsive: 1 cases
[2]; 61 patients, methyltestosterone 10-15 days following operations, follow-up 6 months to 1 year
  relapse of condyloma acuminatum: None of the patients relapsed; also recorded: no relapse case; also recorded: no relapses occurred
[2]; Case 11: penis, laser, then 1 tablet three times daily 5 days and twice daily 5 days
  relapse of lesions: did not relapse
[2]; Case 12: anus, CO2 laser, then 1 tablet three times daily 5 days and twice daily 10 days
  relapse of lesions: did not relapse
[2]; Case 13: vulva and anus, CO2 laser, then 1 tablet three times daily 5 days and twice daily 5 days, in 4 weeks
  new vegetations: no new vegetations appearing
[2]; Case 14: anus, CO2 laser, then 1 tablet twice daily for 10 days, in a year
  relapse: No relapse occurred
[2]; Case 15: prepuce, CO2 laser, then 1 tablet three times daily for 10 days, wound healed in 4 weeks
  outcome of wound and vegetations: no scars left nor new vegetations growing
[2]; Case 16: after the methyltestosterone treatment
  time until wound healed with negative acetowhitening test: 6 weeks
[2]; Case 16: relapsed after freezing and interferon, CO2 laser, then 1 tablet three times daily 5 days and twice daily 10 days, in one year
  relapse: no relapse occurred
[2]; all condyloma acuminatum cases
  evaluation by Chinese Ministry of Health and WHO criteria for condyloma acuminatum: all cases are considered as cure
[2]; two relapsed cases, then methyltestosterone treatment
  outcome of the two cases relapsed after operation and cytokine (interleukin II) treatment: cured; also recorded: healed the lesions

Source: patent US20040191311A1, “Use of methyltestosterone as a drug for treatment of human papilloma virus infections” (priority 2002, published 2004)
